# Columns and labels:
# C6 cells from rat glioma [1] = experiment: Determination of apoptotic death by dual staining with propidium iodide and Hoechst 33342; type: cell-based; details: curcumin 100 μM or Cur-[G2]-OH 300 μM, 24 or 48 hours
# Method: C6 cells from rat glioma (American Tissue Culture Collection, Rockville, Md., U.S.A. ATCC® CCL-107™) cultured under standard conditions in DMEM medium supplemented with Bovine Fetal Serum and 15% horse serum were used for the experiments.
# 1×10^4 C6 cells/well were cultured with 100 μl of Dulbecco's Modified Eagle's Medium (DMEM) medium for 24 hours in 96-well plates. The cells were treated with curcumin (100 μM), or with Cur-[G2]-OH (300 μM), or with the respective vehicle as a control. After 24- or 48-hours post-treatment, the cells were fixed with a mixture of methanol/acetone (1:1) and stained with propidium iodide (0.5 μg/ml), washed and Hoechst 33342 dye was added (0.1 μg/ml) for staining the nuclei. Cells were observed on the Cytation 3® plate reader (BioTek® Instruments, Inc.) using the DAPI (λ=377-447 nm) and Texas Red (λ=586-647 nm) filters, and the images were captured and analyzed with the Gen5 2.06® program.
# [2] = tested on: Beclin-1, p62, Nrf2, eIF2a and p-eIF2α in C6 cells; experiment: Analysis of autophagy markers and Nrf2 pathway by Western blot; type: cell-based, rat; details: curcumin 2, 15 and 30 μM or Cur-[G2]-OH 6, 45 and 90 μM, 24 h
# Method: C6 cells were grown in 25 cm^2 culture bottles (Corning® N.Y.) to form a 70% confluent monolayer (approximately 4×10^6 cells) and treated with Cur-[G2]-OH (300 μM) for 24 hours. The cells were washed in cold PBS, and lysis buffer (50 mM Tris-HCl, 120 mM NaCl, 0.01% IGEPAL) was added with a protease inhibitor cocktail (Sigma® P8340) and centrifuged to recover the supernatant. Proteins were quantified by the Lowry method (Lowry et al. 1951).
# […] The membranes were blocked with skim milk and subsequently incubated with the respective primary antibody (Beclin1, ab62557; p62, ab91526; Nrf2, sc-30915; p-eIF2α, sc-12412; eIF2, sc-11386 or β-actin, sc-47778) under stirring overnight at 4° C. After incubation, the membranes were washed with a Tween 20 tris-base saline buffer (TBST) and incubated with the respective secondary antibody conjugated to horseradish peroxidase (SIGMA). The bands were visualized by chemiluminescence with the Western Blotting Luminol Reagent reagents (Santacruz Biotechnology®), and the ChemiDoc-It® TS2 Imaging System (UVP, LLC).
# C6 cells from rat glioma [3] = experiment: DNA fragmentation assay; type: cell-based; details: curcumin 100 μM or Cur-[G2]-OH 300 μM, 24 h
# Method: To determine DNA fragmentation, C6 cells (1×10^6) were seeded in Petri dishes (100 mm) at a confluence of 70%. They were treated with curcumin (100 μM) or Cur-[G2]-OH (300 μM) and incubated for 24 and 48 hours. Controls were incubated with vehicle only (DMSO or PBS respectively).
# The DNA was extracted using Trizol (Invitrogen® 15596-026), according to the supplier's specifications, and quantified on a spectrophotometer (Genesys 8®). 20 μg of DNA from each sample was deposited on a 1.5% agarose gel. Electrophoresis was performed at 100 V for 90 minutes. The gel was stained with the Hydragreen™ dye (ACTGene ACT-IDM604) and DNA detection was performed using the ethidium bromide filter and UV light on the Chemidoc-It TS2 imager photodocument (UVP, CA).
# C6 cells = experiment: Determination of Reactive Oxygen Species (ROS); type: cell-based, rat; details: 1 hour
# Method: Intracellular generation of ROS was evaluated in real time by fluorescence microscopy using the ENZ-51011 detection kit (Enzo® Life Sciences). 5×10^3 cells per well were grown in half-area 96 wells plates (Costar 3595®) and incubated for 24 hours. Then, were incubated for 1 hour, with curcumin (2, 15, 30 or 100 μM), or Cur-[G2]-OH (6, 45, 90 or 300 μM) alone or in the presence of the ROS inhibitor N-Acetyl Cysteine (NAC, 400 μM) according to the manufacturer's instructions. As controls, pyocyanin (200 μM) was used as an inducer and NAC […] as an inhibitor, or DMEM medium with or without DMSO as a negative control. At the end of treatment, the test solutions were withdrawn, and the ROS detection solution was added. The plates were observed under bright field and fluorescence microscopy with the GFP filter (λ=469-525 nm), in the Cytation 3® multimodal reader (BioTek®, USA), and the images were captured and analyzed with the Gen5 2.06 program (BioTek®, USA). The experiments were performed five times.
smiles,measurement,setting,value
"COc1cc(/C=C/C(=O)CC(=O)/C=C/c2ccc(O)c(OC)c2)ccc1O [curcumin, reference compound]",nuclear staining / apoptotic morphology (propidium iodide and Hoechst 33342),C6 cells from rat glioma [1],"chromatin condensation (stars), nuclear fragmentation (thin arrows) and apoptotic bodies (arrowheads)"
same,levels of total eIF2-α (immunoblot),[2],increases both the levels of total eIF2-α
same,"phosphorylation of eIF2-α (p-eIF2-α, immunoblot)",[2],"increases both the levels of total eIF2-α, and the levels of p-eIF2α"
same,DNA fragmentation (agarose gel electrophoresis),C6 cells from rat glioma [3],DNA fragmentation was only evident in cells treated with curcumin
same,generation of ROS,"C6 cells; curcumin 2, 15, 30 or 100 μM or Cur-[G2]-OH 6, 45, 90 or 300 μM, without NAC",less effective at producing ROS
same,generation of ROS in the presence of N-acetyl Cysteine (NAC),C6 cells; with NAC 400 μM,slightly amplified with the use of NAC

# From patent US11684592B2, “Multiresistant-tumour sensitiser” (Instituto Nacional de Neurologia Y Neurocirugia Manuel …, priority 2017, dated 2023)
